Source: patent publication US20240148821A1, “PHARMACEUTICAL USE OF CYCLIC PEPTIDE COMPOUND” (CHUGAI SEIYAKU KABUSHIKI KAISHA, priority 2021, published 2024)
Bridge positions count the residues as written; N and C are the ends. Square brackets hold non-standard residues; d marks the D form. Peptide text beside a SMILES is read from it. * marks the point of attachment. hPhe(3-Cl-4-CF3) = N[C@@H](CCc1ccc(C(F)(F)F)c(Cl)c1)C(=O)O; hPhe(3-F,4-CF3) = N[C@@H](CCc1ccc(C(F)(F)F)c(F)c1)C(=O)O; NMePhe(4-CF3) = CN[C@@H](Cc1ccc(C(F)(F)F)cc1)C(=O)O; hPhe(4-CF3) = N[C@@H](CCc1ccc(C(F)(F)F)cc1)C(=O)O; NMePhe(4-Cl) = CN[C@@H](Cc1ccc(Cl)cc1)C(=O)O; NMePhe(4-Me) = CN[C@@H](Cc1ccc(C)cc1)C(=O)O; NMeGly(cPent) = CN[C@H](C(=O)O)C1CCCC1; NMeCha = CN[C@@H](CC1CCCCC1)C(=O)O; NMehLeu = CN[C@@H](CCC(C)C)C(=O)O; NMeAhp(2) = CCCCC[C@H](NC)C(=O)O; NMeI = CC[C@H](C)[C@H](NC)C(=O)O; NMeD = CN[C@@H](CC(=O)O)C(=O)O; NMeL = CN[C@@H](CC(C)C)C(=O)O; NMeV = CN[C@H](C(=O)O)C(C)C; d(β3hA) = C[C@@H](N)CC(=O)O; NMeS = CN[C@@H](CO)C(=O)O; NMeA = CN[C@@H](C)C(=O)O; Piperidide = C1CCN(*)CC1; Pyrrolidide = C1CCN(*)C1; Ac5c = NC1(C(=O)O)CCCC1; Aze = O=C(O)[C@@H]1CCN1; Aib = CC(C)(N)C(=O)O; Sar = CNCC(=O)O; Propyl = CCC*

Columns and labels:
[1] = tested on: Human pancreatic cancer cell line AsPC-1 (G12D mutation Kras); experiment: AsPC-1 cell growth inhibition (AsPC-1 CGI); format: cell-based; settings: read-out: AsPC-1 cell growth inhibition, 50% growth inhibitory concentration (IC50 value); 96 hours, CellTiter-Glo, values classified in ranges
Description: Test compounds were serially dilated with dimethyl sulfoxide, and 200 nL was then dispensed to a U-bottom 96-well plate using Labcyte Echo. […] The cell suspension was dispensed to a. plate containing a test compound at 100 μL per well and incubated at 37° C. in a 5% carbon dioxide gas incubator. 96 hours later, 80 μL of CellTiter-Glo (Promega) was added to each well and fluorescence was measured.

[2] = target: protein-protein interaction between Kras and SOS1 (biotin-tagged human Kras loaded with GDP, His-tagged human SOS1) (Homo sapiens (Human), UniProt P01116, G12D); experiment: Protein-protein interaction inhibition between Kras and SOS1 (KrasG12D-SOS PPI) using AlphaScreen; format: biochemical; settings: AlphaScreen; biotin-tagged human Kras loaded with GDP, His-tagged human SOS1; read-out: KRAS G12D-SOS PPI IC50;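 also: kras produced in E. coli, Ni-coupled donor beads and streptavidin acceptor beads, excitation 680 nm with emission detected at 520–620 nm via singlet oxygen transfer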

Structure (SMILES) | IC50 [1] [nM] | IC50 [2] [nM]
CC[C@H](C)[C@@H]1NC(=O)[C@H](C)N(C)C(=O)C[C@@H](C)NC(=O)[C@H](C(C)C)N(C)C(=O)C2(CCCC2)NC(=O)[C@@H]2CCCN2C(=O)[C@H](CCc2ccc(C(F)(F)F)c(Cl)c2)NC(=O)CN(C)C(=O)[C@H](CC2CCCCC2)N(C)C(=O)[C@@H]2CCCN2C(=O)CN(C)C1=O [Compound 1056] (cyclo([Ac5c][NMeV][d(β3hA)][NMeA]I[Sar]P[NMeCha][Sar][hPhe(3-Cl-4-CF3)]P)) | > 500 | 18
CC[C@H](C)[C@@H]1NC(=O)[C@H](CC(C)C)N(C)C(=O)C[C@@H](C(=O)N2CCCC2)N(C)C(=O)[C@H]([C@@H](C)CC)N(C)C(=O)C2(CCCC2)NC(=O)[C@@H]2CCCN2C(=O)[C@H](CCc2ccc(C(F)(F)F)c(Cl)c2)NC(=O)CN(C)C(=O)[C@H](C2CCCC2)N(C)C(=O)[C@@H]2CCN2C(=O)[C@H](C)N(C)C1=O [Compound 799] ([NMeL]I[NMeA][Aze][NMeGly(cPent)][Sar][hPhe(3-Cl-4-CF3)]P[Ac5c][NMeI][NMeD]-Pyrrolidide; lactam N-11) | ≤ 20 | 1.4
CCCOC[C@H]1C(=O)N(C)CC(=O)N[C@@H](CCc2ccc(C(F)(F)F)c(Cl)c2)C(=O)N2CCC[C@H]2C(=O)NC2(CCCC2)C(=O)N(C)[C@@H]([C@@H](C)CC)C(=O)N(C)[C@H](C(=O)N2CCCC2)CC(=O)N(C)[C@@H](CC(C)C)C(=O)N[C@@H]([C@@H](C)CC)C(=O)N(C)[C@@H](C)C(=O)N2CC[C@H]2C(=O)N1C [Compound 567] ([NMeL]I[NMeA][Aze][NMeS](Propyl)[Sar][hPhe(3-Cl-4-CF3)]P[Ac5c][NMeI][NMeD]-Pyrrolidide; lactam N-11) | ≤ 20 | 1.5
CC[C@H](C)[C@@H]1NC(=O)[C@H](CC(C)C)N(C)C(=O)C[C@@H](C(=O)N2CCCCC2)N(C)C(=O)[C@H](C2CCCC2)N(C)C(=O)C2(CCCC2)NC(=O)[C@@H]2CCCN2C(=O)[C@H](CCc2ccc(C(F)(F)F)c(Cl)c2)NC(=O)CN(C)C(=O)[C@H](CC2CCCCC2)N(C)C(=O)[C@@H]2CCN2C(=O)[C@H](C)N(C)C1=O [Compound 1787] ([NMeL]I[NMeA][Aze][NMeCha][Sar][hPhe(3-Cl-4-CF3)]P[Ac5c][NMeGly(cPent)][NMeD]-Piperidide; lactam N-11) | ≤ 20 | 1.1
CC[C@H](C)[C@@H]1NC(=O)[C@H](CC(C)C)N(C)C(=O)C[C@@H](C(=O)N(C)C)N(C)C(=O)[C@H](C2CCCC2)N(C)C(=O)C2(CCCC2)NC(=O)[C@@H]2CCCN2C(=O)[C@H](CCc2ccc(C(F)(F)F)c(F)c2)NC(=O)CN(C)C(=O)[C@H](Cc2ccc(C)cc2)N(C)C(=O)[C@@H]2CCN2C(=O)[C@H](C)N(C)C1=O [Compound 16] ([NMeL]I[NMeA][Aze][NMePhe(4-Me)][Sar][hPhe(3-F,4-CF3)]P[Ac5c][NMeGly(cPent)][NMeD]-NMe2; lactam N-11) | ≤ 20 | 0.7
CCCCC[C@H]1C(=O)N[C@@H]([C@@H](C)CC)C(=O)N(C)[C@@H](C)C(=O)N2CC[C@H]2C(=O)N(C)[C@@H](Cc2ccc(C(F)(F)F)cc2)C(=O)N(C)CC(=O)N[C@@H](CCc2ccc(C(F)(F)F)c(Cl)c2)C(=O)N2CCC[C@H]2C(=O)NC2(CCCC2)C(=O)N(C)[C@@H]([C@@H](C)CC)C(=O)N(C)[C@H](C(=O)N2CCCC2)CC(=O)N1C [Compound 509] ([NMeAhp(2)]I[NMeA][Aze][NMePhe(4-CF3)][Sar][hPhe(3-Cl-4-CF3)]P[Ac5c][NMeI][NMeD]-Pyrrolidide; lactam N-11) | ≤ 20 | 1.3
CC[C@H](C)[C@@H]1NC(=O)[C@H](C)N(C)C(=O)C[C@@H](C)NC(=O)[C@H](CC(C)C)N(C)C(=O)C(C)(C)NC(=O)[C@H](CC(C)C)N(C)C(=O)[C@H](CCc2ccc(C(F)(F)F)cc2)NC(=O)CN(C)C(=O)[C@H](Cc2ccc(Cl)cc2)N(C)C(=O)CN(C)C(=O)CN(C)C1=O [Compound 788] (cyclo([Aib][NMeL][d(β3hA)][NMeA]I[Sar][Sar][NMePhe(4-Cl)][Sar][hPhe(4-CF3)][NMeL])) | > 500 | 13
CC[C@H](C)[C@@H]1NC(=O)[C@H](CC(C)C)N(C)C(=O)C[C@@H](C(=O)N2CCCCC2)N(C)C(=O)[C@H](CCC(C)C)N(C)C(=O)C2(CCCC2)NC(=O)[C@@H]2CCCN2C(=O)[C@H](CCc2ccc(C(F)(F)F)c(Cl)c2)NC(=O)CN(C)C(=O)[C@H](CC2CCCCC2)N(C)C(=O)[C@@H]2CCN2C(=O)[C@H](C)N(C)C1=O [Compound 1776] ([NMeL]I[NMeA][Aze][NMeCha][Sar][hPhe(3-Cl-4-CF3)]P[Ac5c][NMehLeu][NMeD]-Piperidide; lactam N-11) | > 500 | 24
CC[C@H](C)[C@@H]1NC(=O)[C@H](C)N(C)C(=O)C[C@@H](C(=O)N2CCCCC2)N(C)C(=O)[C@H](C(C)C)N(C)C(=O)C2(CCCC2)NC(=O)[C@@H]2CCCN2C(=O)[C@H](CCc2ccc(C(F)(F)F)c(F)c2)NC(=O)CN(C)C(=O)[C@H](CC2CCCCC2)N(C)C(=O)[C@@H]2CCN2C(=O)[C@H](C)N(C)C1=O [Compound 1024] ([NMeA]I[NMeA][Aze][NMeCha][Sar][hPhe(3-F,4-CF3)]P[Ac5c][NMeV][NMeD]-Piperidide; lactam N-11) | > 500 | 1.9
